Assay results published in ChEMBL document CHEMBL1201862, “PubChem BioAssay data set” (2004).
The source made the active and inactive calls.

Key:
Caspase-6 = target: T1, Caspase-6 (Homo sapiens, UniProt P55212); assay: human caspase-6 inhibitors, dose response, biochemical, VEID-R110 fluorescence, cherry-pick (AID 720632)
T1 sequence (P55212 whole entry): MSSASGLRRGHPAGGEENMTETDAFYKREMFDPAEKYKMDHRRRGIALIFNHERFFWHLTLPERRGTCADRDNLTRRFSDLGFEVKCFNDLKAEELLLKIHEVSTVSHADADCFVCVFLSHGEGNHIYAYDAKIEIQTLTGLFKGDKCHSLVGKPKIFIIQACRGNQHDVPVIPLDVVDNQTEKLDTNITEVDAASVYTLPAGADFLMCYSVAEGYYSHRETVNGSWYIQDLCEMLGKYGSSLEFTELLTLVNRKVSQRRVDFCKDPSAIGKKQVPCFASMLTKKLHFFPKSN

P388/ADR = assay: cells; type: functional; settings: Mus musculus
SN12K1 = assay: cells; type: functional; settings: Homo sapiens
[1] = HepG2 cell cytotoxicity, dose response, cytotoxicity control, plate reader, cherry-pick, antagonist series (AID 743416); type: functional, cell-based
P388 = assay: cells; type: functional; settings: Mus musculus
[2] = Luminescence Cell-Based Dose Confirmation HTS to Identify Activators of 5'UTR Stem-Loop Driven Alpha-Synuclein mRNA Translation in H4 Neuroglioblastoma Cells. [Related pubchem assays: 1829 (Project Summary), 1814 (Primary HTS)]; type: functional
[3] = Luminescence Cell-Based Dose Response HTS to Identify Activators of Luciferase Translation or Activity in H4 […] Cells. [Related pubchem assays: 1829 (Project Summary), 1814 (Primary HTS)]; type: functional
H4 = assay: Luminescence Cell-Based Dose Response HTS to Identify Activators of 5'UTR Stem-Loop Driven Prion Protein mRNA Translation in H4 Neuroglioblastoma Cells. [Related pubchem assays: 1829 (Project Summary), 1814 (Primary HTS)]; type: functional; settings: Homo sapiens
[4] = NIH-3T3 fibroblast cytotoxicity, dose response, cytotoxicity control, cell-based, fluorescence, Alamar Blue, secondary assay (AID 2327); type: functional;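 further: NIH-3T3 mouse fibroblasts cultured with fluconazole at 8 µg/mL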
[5] = C. albicans growth with fluconazole, confirmation, fluorescence, retest (AID 2467); type: functional, cell-based
[6] = inhibitors of intracellular T. cruzi replication, confirmation, NIH3T3 host cells, beta-gal luminescence (AID 2044); type: functional, cell-based;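 further: intracellular parasites grown in NIH/3T3 mouse fibroblasts as host cells; luminescent beta-galactosidase reporter signal from transgenic T. cruzi replicating inside host cells; inhibitors lower the luminescence signal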
[7] = cytotoxicity toward NIH3T3 fibroblasts, dose response, counter-screen, cell-based, ATP luminescence, mouse fibroblasts (AID 2010); type: functional;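 further: cells exposed to compound for about 90 hours before reading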
INS1 = assay: beta cell apoptosis inhibitors, cytokine rescue, dose response, luminescence, retest (AID 449756); type: functional, cell-based; settings: Rattus norvegicus;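 further: cell death triggered by IL-1 beta plus TNF-alpha plus IFN-gamma mixture; protective hits raise ATP signal compared with cytokine alone wells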
[8] = HEp-2 cell cytotoxicity, dose response, cytotoxicity control for RSV inhibitor project, HTS (AID 2410); type: functional; settings: human respiratory syncytial virus
Fatty acid synthase [9] = target: T2, Fatty acid synthase (Homo sapiens, UniProt P49327); assay: FAS thioesterase domain inhibitors, dose response, biochemical, kinetic fluorescence intensity (AID 624326); type: functional;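 further: rate of fluorescence rise from hydrolysis of a fluorogenic O-methyl fluorescein ester substrate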
T2 sequence (P49327 whole entry, the tested form may be a part): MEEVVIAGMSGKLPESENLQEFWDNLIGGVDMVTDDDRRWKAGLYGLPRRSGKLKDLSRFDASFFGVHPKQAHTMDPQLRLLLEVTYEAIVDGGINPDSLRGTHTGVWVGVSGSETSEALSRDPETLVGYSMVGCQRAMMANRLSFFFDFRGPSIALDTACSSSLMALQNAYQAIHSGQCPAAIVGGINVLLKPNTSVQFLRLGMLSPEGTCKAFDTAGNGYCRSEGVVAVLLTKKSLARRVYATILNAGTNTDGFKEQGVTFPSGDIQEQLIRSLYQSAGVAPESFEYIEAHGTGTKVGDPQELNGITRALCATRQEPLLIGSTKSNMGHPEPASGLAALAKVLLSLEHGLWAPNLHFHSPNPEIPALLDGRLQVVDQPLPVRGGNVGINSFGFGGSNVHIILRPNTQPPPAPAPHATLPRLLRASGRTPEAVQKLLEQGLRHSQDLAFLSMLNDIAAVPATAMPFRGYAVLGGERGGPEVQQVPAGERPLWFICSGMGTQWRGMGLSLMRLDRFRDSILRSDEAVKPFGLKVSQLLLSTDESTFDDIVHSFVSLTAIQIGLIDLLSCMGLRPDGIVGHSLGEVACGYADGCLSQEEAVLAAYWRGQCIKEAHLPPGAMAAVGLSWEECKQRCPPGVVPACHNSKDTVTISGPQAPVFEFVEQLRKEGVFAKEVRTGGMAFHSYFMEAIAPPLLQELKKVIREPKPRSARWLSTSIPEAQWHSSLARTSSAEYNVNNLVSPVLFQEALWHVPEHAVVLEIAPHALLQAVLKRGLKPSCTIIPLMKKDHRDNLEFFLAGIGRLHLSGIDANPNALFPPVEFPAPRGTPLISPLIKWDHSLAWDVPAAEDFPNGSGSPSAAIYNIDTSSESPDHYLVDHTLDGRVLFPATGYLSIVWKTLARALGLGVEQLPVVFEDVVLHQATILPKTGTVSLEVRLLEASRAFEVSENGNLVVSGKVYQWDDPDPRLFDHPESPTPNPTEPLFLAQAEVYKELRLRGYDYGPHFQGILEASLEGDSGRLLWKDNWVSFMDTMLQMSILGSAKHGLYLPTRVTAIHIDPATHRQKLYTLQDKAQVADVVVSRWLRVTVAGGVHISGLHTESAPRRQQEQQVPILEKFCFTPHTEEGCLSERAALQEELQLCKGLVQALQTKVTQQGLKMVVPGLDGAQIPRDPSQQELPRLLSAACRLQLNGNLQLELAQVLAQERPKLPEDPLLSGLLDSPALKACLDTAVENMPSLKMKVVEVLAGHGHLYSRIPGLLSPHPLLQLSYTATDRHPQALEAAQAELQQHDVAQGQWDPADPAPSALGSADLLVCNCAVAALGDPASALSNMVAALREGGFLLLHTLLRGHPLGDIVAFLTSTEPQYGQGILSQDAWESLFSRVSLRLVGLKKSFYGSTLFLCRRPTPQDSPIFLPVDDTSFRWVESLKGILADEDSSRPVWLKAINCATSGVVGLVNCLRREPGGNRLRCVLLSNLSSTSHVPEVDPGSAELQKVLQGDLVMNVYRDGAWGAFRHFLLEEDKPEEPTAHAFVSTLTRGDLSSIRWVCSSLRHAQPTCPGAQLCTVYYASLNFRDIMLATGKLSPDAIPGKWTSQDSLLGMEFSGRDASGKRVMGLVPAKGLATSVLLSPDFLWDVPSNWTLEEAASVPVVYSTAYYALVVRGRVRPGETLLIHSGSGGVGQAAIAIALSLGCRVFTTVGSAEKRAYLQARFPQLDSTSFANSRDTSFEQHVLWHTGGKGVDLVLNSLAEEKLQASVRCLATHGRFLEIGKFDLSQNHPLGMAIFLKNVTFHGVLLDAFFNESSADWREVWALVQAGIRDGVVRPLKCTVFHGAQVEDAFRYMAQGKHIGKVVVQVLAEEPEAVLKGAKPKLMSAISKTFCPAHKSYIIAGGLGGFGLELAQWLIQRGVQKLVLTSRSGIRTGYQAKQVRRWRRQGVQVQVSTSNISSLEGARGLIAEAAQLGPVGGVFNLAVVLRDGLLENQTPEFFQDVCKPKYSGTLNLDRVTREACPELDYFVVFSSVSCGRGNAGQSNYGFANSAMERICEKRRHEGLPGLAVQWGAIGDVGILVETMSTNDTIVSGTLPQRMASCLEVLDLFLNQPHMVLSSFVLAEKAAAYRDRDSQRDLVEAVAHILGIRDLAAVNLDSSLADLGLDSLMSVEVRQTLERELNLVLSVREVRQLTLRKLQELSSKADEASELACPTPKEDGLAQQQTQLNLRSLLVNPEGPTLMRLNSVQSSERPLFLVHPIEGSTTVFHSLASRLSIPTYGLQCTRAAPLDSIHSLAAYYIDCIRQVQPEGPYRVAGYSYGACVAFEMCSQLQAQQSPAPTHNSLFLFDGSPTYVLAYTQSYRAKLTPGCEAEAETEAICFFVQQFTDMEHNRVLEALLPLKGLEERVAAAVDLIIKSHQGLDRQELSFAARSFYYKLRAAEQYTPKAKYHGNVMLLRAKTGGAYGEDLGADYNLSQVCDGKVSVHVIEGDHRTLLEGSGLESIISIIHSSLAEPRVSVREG

[10] = target: Voltage-dependent T-type calcium channel subunit alpha-1H (Homo sapiens, UniProt O95180); type: functional;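 further: channel activity triggered by adding a high calcium stimulation buffer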
Sequence of Voltage-dependent T-type calcium channel subunit alpha-1H (O95180 whole entry): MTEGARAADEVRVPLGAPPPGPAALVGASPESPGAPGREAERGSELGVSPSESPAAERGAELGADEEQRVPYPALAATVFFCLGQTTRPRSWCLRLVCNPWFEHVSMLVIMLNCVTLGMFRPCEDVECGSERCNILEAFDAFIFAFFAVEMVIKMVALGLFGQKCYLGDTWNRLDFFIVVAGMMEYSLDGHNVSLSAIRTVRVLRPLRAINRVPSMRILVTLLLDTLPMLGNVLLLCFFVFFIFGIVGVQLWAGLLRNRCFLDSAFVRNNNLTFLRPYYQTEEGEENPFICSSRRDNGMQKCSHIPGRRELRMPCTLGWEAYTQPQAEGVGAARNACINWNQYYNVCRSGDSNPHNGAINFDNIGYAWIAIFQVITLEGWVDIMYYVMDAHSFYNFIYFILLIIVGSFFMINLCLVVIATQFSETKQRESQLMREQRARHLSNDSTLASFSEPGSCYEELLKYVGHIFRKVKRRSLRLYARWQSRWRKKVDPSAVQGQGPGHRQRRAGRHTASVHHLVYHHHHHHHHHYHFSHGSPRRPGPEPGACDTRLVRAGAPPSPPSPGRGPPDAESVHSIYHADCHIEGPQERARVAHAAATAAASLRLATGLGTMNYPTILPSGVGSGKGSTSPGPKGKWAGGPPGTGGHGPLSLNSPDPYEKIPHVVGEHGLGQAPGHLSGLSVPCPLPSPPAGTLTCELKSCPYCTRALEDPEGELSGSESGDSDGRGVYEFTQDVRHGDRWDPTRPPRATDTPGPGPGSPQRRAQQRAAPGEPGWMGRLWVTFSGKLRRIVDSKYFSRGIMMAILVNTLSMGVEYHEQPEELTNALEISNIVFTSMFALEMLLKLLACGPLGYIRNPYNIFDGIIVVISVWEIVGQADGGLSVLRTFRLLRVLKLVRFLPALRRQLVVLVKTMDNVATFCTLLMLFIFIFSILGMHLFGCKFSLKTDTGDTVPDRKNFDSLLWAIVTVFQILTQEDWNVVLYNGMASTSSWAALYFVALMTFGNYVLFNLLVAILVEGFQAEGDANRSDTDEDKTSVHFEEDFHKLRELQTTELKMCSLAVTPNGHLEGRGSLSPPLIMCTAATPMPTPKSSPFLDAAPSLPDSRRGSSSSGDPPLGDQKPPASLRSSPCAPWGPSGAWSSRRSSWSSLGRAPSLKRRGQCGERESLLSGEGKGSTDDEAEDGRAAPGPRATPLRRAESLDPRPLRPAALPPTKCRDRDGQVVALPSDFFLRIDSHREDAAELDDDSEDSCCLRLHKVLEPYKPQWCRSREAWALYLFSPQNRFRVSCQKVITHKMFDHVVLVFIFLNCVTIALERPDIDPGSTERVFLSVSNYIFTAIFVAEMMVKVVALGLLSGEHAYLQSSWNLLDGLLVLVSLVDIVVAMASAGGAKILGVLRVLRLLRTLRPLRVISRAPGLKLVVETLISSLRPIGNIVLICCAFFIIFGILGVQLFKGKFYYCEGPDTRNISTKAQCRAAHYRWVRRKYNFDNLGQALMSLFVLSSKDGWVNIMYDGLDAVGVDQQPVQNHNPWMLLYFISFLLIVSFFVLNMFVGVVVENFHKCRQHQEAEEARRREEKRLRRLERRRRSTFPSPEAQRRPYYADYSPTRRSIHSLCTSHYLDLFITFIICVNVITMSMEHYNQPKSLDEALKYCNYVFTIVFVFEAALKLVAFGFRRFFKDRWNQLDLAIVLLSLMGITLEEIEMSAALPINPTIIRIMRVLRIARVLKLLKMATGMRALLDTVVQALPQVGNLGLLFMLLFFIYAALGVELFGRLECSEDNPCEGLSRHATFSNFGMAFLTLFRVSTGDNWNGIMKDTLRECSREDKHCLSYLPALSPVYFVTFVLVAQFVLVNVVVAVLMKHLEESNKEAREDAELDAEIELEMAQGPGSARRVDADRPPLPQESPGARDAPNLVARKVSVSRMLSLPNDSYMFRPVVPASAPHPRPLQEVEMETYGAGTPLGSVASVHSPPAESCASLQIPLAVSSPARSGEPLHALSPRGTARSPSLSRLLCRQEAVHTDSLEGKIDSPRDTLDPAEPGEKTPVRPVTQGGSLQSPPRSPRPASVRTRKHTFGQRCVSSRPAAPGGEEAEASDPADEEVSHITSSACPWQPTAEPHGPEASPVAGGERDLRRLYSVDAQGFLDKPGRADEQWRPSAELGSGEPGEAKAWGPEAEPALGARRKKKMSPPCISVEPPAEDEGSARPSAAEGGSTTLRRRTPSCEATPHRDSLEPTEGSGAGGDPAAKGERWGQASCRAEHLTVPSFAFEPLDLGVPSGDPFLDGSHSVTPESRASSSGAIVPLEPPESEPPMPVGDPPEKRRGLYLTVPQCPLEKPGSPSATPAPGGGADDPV

BJ [11] = assay: cytotoxicity toward BJ-TERT fibroblasts, dose response, cell-based, RAS-independent, luminescence (AID 1933); type: functional; settings: Homo sapiens
BJ [12] = assay: cells; type: functional, cell-based; settings: Homo sapiens
BJ [13] = assay: cytotoxicity toward BJ-TERT-LT-ST fibroblasts, dose response, cell-based, RAS-independent, luminescence (AID 1935); type: functional; settings: Homo sapiens;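 further: BJ fibroblasts immortalized with TERT plus LT and ST oncogenes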
[14] = cytotoxicity toward DRD oncogenic fibroblasts, dose response, cell-based, non-viral oncogenic, luminescence (AID 1934); type: functional; settings: Homo sapiens
Fatty acid synthase [15] = target: T2, Fatty acid synthase; assay: FAS thioesterase domain inhibitors, dose response, biochemical, endpoint fluorescence intensity, uHTS hits (AID 624327); type: functional;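 further: fluorescence from hydrolysis of an O-methyl fluorescein acyl ester substrate by the enzyme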

O=C(COC(=O)c1ccc([N+](=O)[O-])o1)Nc1ncc(Cl)cc1Cl
AC50 (Caspase-6): 28.3 µM (active)

COC1C(O)CC(OC2CC(Oc3cc4cc5c(c(O)c4c(O)c3C)C(=O)[C@@H](OC3CC(OC4CC(OC6CC(C)(O)C(OC(C)=O)C(C)O6)C(O)C(C)O4)C(O)C(C)O3)[C@H]([C@H](OC)C(=O)[C@@H](O)[C@@H](C)O)C5)OC(C)C2OC(C)=O)OC1C (stereo partly drawn) [CHROMOMYCIN]
GI50 (P388/ADR): 0.132 µM (active) | GI50 (SN12K1): 0.0034 µM (active)

Cc1ccc(S(=O)(=O)N2CCCc3nc(-c4ccc(F)cc4)ccc32)cc1
AC50 [1]: > 52 µM (inactive)

Cc1c2c(cc3c1[nH]c1ccccc13)C(c1ccc(F)cc1)=NCC2
GI50 (P388/ADR): 0.448 µM (active) | GI50 (SN12K1): 0.925 µM (active) | GI50 (P388): 0.809 µM (active)

CC1CCC(NC(=O)N(CCCl)N=O)CC1 (stereo not drawn) [SEMUSTINE]
EC50 [2]: 5.98 µM (active) | EC50 [3]: 24 µM (active) | EC50 (H4): 16.2 µM (active)

O=C(O)CSc1nc2sc3c(c2c(=O)n1Cc1ccccc1)CCCCC3
EC50 [2]: > 60 µM (not active) | EC50 [3]: 15.6 µM (active) | EC50 (H4): 16.4 µM (active)

CCCCCCCC[n+]1cccc2c3ccccc3ccc21
EC50 [4]: 69.2 µM (active) | EC50 [5]: 2.81 µM (active) | EC50 [6]: 0.161 µM (active) | EC50 [7]: 8.8 µM (active) | AC50 (INS1): 0.268 µM (active)

O=S(=O)(c1ccc(-c2csc(-c3cccnc3)n2)cc1)N1CCCCC1
CC50 [8]: 40.1 µM (active) | EC50 [6]: 1.89 µM (active) | EC50 [7]: > 30 µM (not active) | IC50 (Fatty acid synthase [9]): 3.65 µM (active)

COc1ccc(-c2noc(CCC(=O)N3CCN(c4cc(C)ccc4C)CC3)n2)cc1
EC50 [10]: 3.63 µM (active)

COc1cc([C@@H]2c3cc4c(c(O[C@@H]5O[C@H]6CO[C@@H](C)O[C@H]6[C@H](O)[C@@H]5O)c3C[C@H]3COC(=O)[C@@H]32)OCO4)cc(OC)c1O
GI50 (SN12K1): 10.9 µM (inactive) | GI50 (P388): 2.16 µM (inactive)

CCSc1nc2ccccc2n1CCOc1ccccc1
EC50 [10]: 18.2 µM (active)

O=C(Nc1cccc(NC(=O)c2ccc(-c3ccc(Br)cc3)o2)c1)c1ccccc1
EC50 [10]: 19.1 µM (active)

Cc1nc2c(-c3ccc(F)cc3)c(C)nn2c(C)c1CCC(=O)N1CCN(c2ccc(F)cc2)CC1
EC50 [10]: 5.21 µM (active)

CC(=O)c1ccc(Oc2ccc(C(=O)c3ccc(C)c(C)c3)cc2[N+](=O)[O-])cc1
EC50 (BJ [11]): 26.4 µM (active) | EC50 (BJ [12]): > 150 µM (not active) | EC50 (BJ [13]): > 150 µM (not active) | EC50 [14]: > 150 µM (inconclusive)

CC1=CC2c3cccc4[nH]cc(c34)CC2N(C)C1 (stereo not drawn)
GI50 (P388/ADR): 14.2 µM (inactive) | GI50 (SN12K1): 27.2 µM (inactive) | GI50 (P388): 31 µM (inactive)

Cc1cc(C)c(NS(=O)(=O)c2cccc3cccnc23)c(C)c1
EC50 [4]: 38.5 µM (active) | EC50 [5]: > 38 µM (not active)

COc1ccc(CC(=N)NOC(=O)c2cccc([N+](=O)[O-])c2)cc1
IC50 (Fatty acid synthase [15]): 18.3 µM (active) | IC50 (Fatty acid synthase [9]): 14.6 µM (active)

Cc1ccc(-c2nnc(SCC(C)C)n2C)cc1
EC50 [2]: 11.5 µM (active) | EC50 [3]: 88.6 µM (active) | EC50 (H4): 10.1 µM (active)

Cc1ccc(C(CC(=O)NCc2ccco2)c2ccc(OC(C)C)cc2)cc1 (stereo not drawn)
EC50 [10]: 15.9 µM (active)
